Experimental findings from US20260294864A1, “PHARMACEUTICAL COMPOSITION FOR THE TREATMENT AND PREVENTION OF HPV” (NP1 SRL, priority 2022, published 2026) are described below.

Common to all, as to assay type: cell-based, human
In one assay the test system is Ca-Ski cells. Kind of assay: Anti-clonogenic activity on Ca-Ski cells. Conditions: compared with HeLa data of FIG. 10. An excerpt:
(§1) HeLa cells are the oldest continuous cell lines and were originally derived from a HPV18 positive metastatic cervical carcinoma (Scherer W F et al 1953). Siha cells are an epithelioid like cell line derived from a HPV16-positive invasive cervical squamous carcinoma (Friedel F et al 1970). Ca-Ski cells are a line harboring multiple copy of transcriptionally active HPV16 genomes (Baker C C et al 1984). Both Hela and Siha were a kind gift of prof MS Campo, The Beatson Institute for Cancer Research, Glasgow, Scotland. These two cell lines because of their versatility and ease of use were used for most of experiments reported. Ca-Ski cells were obtained through the courtesy of prof. Matthias Durst, at the Deutsch Krebsforschungzentrum—Heidelberg, FRG. […]
(§2) The anti-clonogenic activity was evaluated both by the current standard qualitative plating efficiency assay and by quantitative live cell imaging analysis (INCUCYTE S3 Live Cell Analysis Imaging System—Sartorius Welwyn Garden City, Hertfordshire, UK). […] The anti-clonogenic activity of the treatments was evaluated using the colony forming units (CFU) of treated versus control cultures. […] For quantitative evaluation cells were seeded in 96-well microplates at the above density and condition and allowed to grow the subsequent 8-day incubation in the INCUCYTE S3 Imaging System. […]

For another assay, the system named is HeLa cells. Kind of assay: Anti-clonogenic activity on HeLa cells (plating efficiency assay / live cell imaging). The following applies: HeLa. As to the method:
Panel C and D: diagrammatic topographical maps of treatments and growth conditions on plates A and B respectively.
Panel A. Hela cells were challenged with serial twofold dilutions of 50 μM Luteolin (in columns 1-6) and 100 μM Galangin (columns 7-10). Hela control untreated cells in columns 11-12.
A total of 6 cell lines, outlined in Table 3, were used for this study. The cell lines were obtained from Research Centres of cell biology in Italy, United Kingdom and Germany. This research raised no ethical concern being based on entirely in vitro experiments using no patients' derived information or material. In compliance with National and International ethical rules, no informed consent is needed.
HeLa cells are the oldest continuous cell lines and were originally derived from a HPV18 positive metastatic cervical carcinoma (Scherer W F et al 1953). Siha cells are an epithelioid like cell line derived from a HPV16-positive invasive cervical squamous carcinoma (Friedel F et al 1970). Ca-Ski cells are a line harboring multiple copy of transcriptionally active HPV16 genomes (Baker C C et al 1984). Both Hela and Siha were a kind gift of prof MS Campo, The Beatson Institute for Cancer Research, Glasgow, Scotland. These two cell lines because of their versatility and ease of use were used for most of experiments reported. Ca-Ski cells were obtained through the courtesy of prof. Matthias Durst, at the Deutsch Krebsforschungzentrum—Heidelberg, FRG. These cells used together with Siha provide a model for the genetic instability and variability of cervical cancers. HK-168 is an immortalized, non-tumorigenic, continuous cell line derived from human skin keratinocytes in vitro transformed with whole HPV16 genome (De Marco F et al 2007). This cell line is reputed to recapitulate le biological features of transformed dysplastic cells and was used in preliminary experiments to set the experimental dosages and conditions. The ME-180 cells are a cell line harboring a few, transcriptionally active, copies of HPV68 and provide an in vitro model for dysplastic/neoplastic lesions induced by HPV with Intermediate oncogenic Risk (Yee C C et al 1985). The HaCaT cells, derived from a solar skin lesion by Petra Boukamp et al (1988) are here used as an in vitro equivalent of Ultra-Violet induced pre-neoplastic epithelial cells to rule out possible direct toxic effects of polyphenols. Both HaCaT and ME-180, were kindly donated by Prof. Matthias Durst. Hela, Siha, Ca-Ski, ME-180 and HaCaT were all grown in high glucose DMEM supplemented with 10% fetal calf serum (FCS). The HK-168 cells, which retained the ability to terminally differentiate under high Ca^2+ and FCS concentrations, were grown in K-SFM, a chemically defined medium supplemented with human EGF and bovine pituitary extract (ThermoFisher Scientific, Life Technologies, Monza—MI). Each cell line was sub-cultured twice a week at the appropriate split ratio according to the specific proliferative index. In no case antibiotics or antimycotics were added to the culture media. For the present study, all cell lines were retrieved from an in-house cell archive facility.
The anti-clonogenic activity was evaluated both by the current standard qualitative plating efficiency assay and by quantitative live cell imaging analysis ([…] S3 Live Cell Analysis Imaging System—Sartorius Welwyn Garden City, Hertfordshire, UK).

The next assay has as its system ME-180 cells. Briefly: Anti-clonogenic activity on ME-180 cells. The following applies: compared with HeLa data of FIG. 10.
Excerpt: as §1, §2

A further assay relates to HPV transformed cells. Kind of assay: Anti-clonal effect on HPV transformed cells (cell line not stated). The following applies: summary statement. As to the method: The inhibitory relative rate (IRR) (fourth column) provides an efficacy ranking of molecules.
The anti-clonogenic activity was evaluated both by the current standard qualitative plating efficiency assay and by quantitative live cell imaging analysis (INCUCYTE S3 Live Cell Analysis Imaging System—Sartorius Welwyn Garden City, Hertfordshire, UK). For qualitative plating efficiency assay cells were seeded at ‘clonal’ density (i.e., 0.5 cell/mm^2) either in medium containing the testing molecules or with plain medium and incubated without any further manipulation. After 9-14 days, according to the cell line specific proliferative index, the cultures were decanted and stained with 0.2% CV/methanol for 5 min at room temperature. All conditions were tested in triplicates in a 6-well culture plate. The anti-clonogenic activity of the treatments was evaluated using the colony forming units (CFU) of treated versus control cultures. The minimal concentration which could reduce 50% of the CFU of treated versus control culture was defined as colony-forming Inhibitory concentration (CID50). For quantitative evaluation cells were seeded in 96-well microplates at the above density and condition and allowed to grow the subsequent 8-day incubation in the INCUCYTE S3 Imaging System. Images were acquired at 12-hours intervals and colony formation and percentage of growth area covered (confluency) were then monitored through automated image analysis. The analysis parameters were as follows: segmentation adjustment=0.4; hole fill <5,000 μm^2; adjusted pixel=−2.

Take `COc1cc(/C=C/C(=O)O)ccc1O` [Ferulic acid]: the “clonal inhibition with Galangin, Chrysin or Apigenin” value in the assay with Ca-Ski cells and in the assay with ME-180 cells was “Superimposable results” in each case. Further, the “clonal inhibition in combination with Apigenin” value with HeLa cells (50 μM combined with Apigenin 25 μM, FIG. 9-11) is recorded as “almost complete clonal inhibition”. Besides, in the assay on HeLa cells (50 μM combined with Chrysin 25 μM, FIG. 10-11), the “clonal inhibition in combination with Chrysin” value was “almost complete clonal inhibition”. Further, in the assay with HeLa cells (50 μM combined with Galangin 12.5 μM, FIG. 9-10), the “clonal inhibition in combination with Galangin” value is “almost complete clonal inhibition”. Moreover, the “end point clonal assay, clonal inhibition alone” value in the assay with HeLa cells (50 μM, administered alone, FIG. 9-11) is given as “Neither of them induced any effect”. The Anti-clonal effect entry in the assay on HeLa cells (50 μM, isolated, FIG. 1) is given as “devoid of any significant anticlonogenic effect”. Besides, the “synergy with Galangine, Apigenin and Chrysin” value in the assay with HeLa cells (in association, FIG. 10-11) was “synergize”. In the assay on HPV transformed cells (combined with Galangin, Chrysin or Apigenin), the “clonal inhibition in combination” value is “a certain grade of clonal inhibition”. Moreover, in the assay on HPV transformed cells (isolated compound), the “anticlonogenic / anti-clonal effect” value was “devoid of. any direct anticlonogenic activity”.
